Source: ChEMBL document CHEMBL1201862, “PubChem BioAssay data set” (2004)
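Results reflect a 48-hour exposure of cells in 96-well plates to compound at five concentrations. GI50 is the concentration that inhibits growth by half.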 Active and inactive are the calls of the source. No stated cut-off is given here; in the data, active = GI50 up to about 1.1 µM and inactive = higher.

Columns and labels:
Test in all cases: DTP human tumour cell line panel, 48 h
[1] = tested on: NCI-H460
[2] = tested on: SK-MEL-28
[3] = tested on: SF-539
[4] = tested on: BT-549
[5] = tested on: HCC 2998
[6] = tested on: EKVX
[7] = tested on: ACHN
[8] = tested on: HT-29
[9] = tested on: M14
[10] = tested on: SNB-19
[11] = tested on: RPMI-8226
[12] = tested on: NCI-H522
[13] = tested on: KM12
[14] = tested on: HOP-62
[15] = tested on: HOP-92
[16] = tested on: SK-OV-3
[17] = tested on: OVCAR-8
[18] = tested on: OVCAR-4
[19] = tested on: PC-3
[20] = tested on: MCF7
[21] = tested on: UACC-62
[22] = tested on: NCI-H226
[23] = tested on: SN12C
[24] = tested on: A498
[25] = tested on: MDA-MB-435
[26] = tested on: SF-295
[27] = tested on: TK-10
[28] = tested on: U-251
[29] = tested on: SW-620
[30] = tested on: K562
[31] = tested on: UO-31
[32] = tested on: SK-MEL-5
[33] = tested on: 786-0
[34] = tested on: MOLT-4
[35] = tested on: SNB-75
[36] = tested on: COLO 205
[37] = tested on: NCI/ADR-RES
[38] = tested on: A549
[39] = tested on: LOX IMVI
[40] = tested on: MDA-MB-231
[41] = tested on: HCT-15
[42] = tested on: OVCAR-3
[43] = tested on: SR
[44] = tested on: UACC-257
[45] = tested on: Hs-578T
[46] = tested on: OVCAR-5
[47] = tested on: SF-268
[48] = tested on: HCT-116
[49] = tested on: SK-MEL-2
[50] = tested on: IGROV-1
[51] = tested on: T47D
[52] = tested on: DU-145
[53] = tested on: CAKI-1
[54] = tested on: MDA-N
[55] = tested on: NCI-H23
[56] = tested on: Malme-3M
[57] = tested on: HL-60
[58] = tested on: RXF 393
[59] = tested on: CCRF-CEM

## O=C(Nc1sccc1S(=O)(=O)c1ccc(Cl)cc1)C(F)(F)F
[1]
  GI50: 27.4 µM (inactive)
[2]
  GI50: 74.3 µM (inactive)
[3]
  GI50: 26.1 µM (inactive)
[4]
  GI50: 58.5 µM (inactive)
[5]
  GI50: 22.9 µM (inactive)
[6]
  GI50: 40.7 µM (inactive)
[7]
  GI50: 43 µM (inactive)
[8]
  GI50: 25 µM (inactive)
[9]
  GI50: 38.3 µM (inactive)
[10]
  GI50: > 100 µM (inactive)
[11]
  GI50: 3.88 µM (inactive)
[12]
  GI50: 8.63 µM (inactive)
[13]
  GI50: 13.4 µM (inactive)
[14]
  GI50: 37.4 µM (inactive)
[15]
  GI50: 23.6 µM (inactive)
[16]
  GI50: 30.3 µM (inactive)
[17]
  GI50: 24.6 µM (inactive)
[18]
  GI50: 33.7 µM (inactive)
[19]
  GI50: 21.5 µM (inactive)
[20]
  GI50: 28.8 µM (inactive)
[21]
  GI50: 9.27 µM (inactive)
[22]
  GI50: 29.6 µM (inactive)
[23]
  GI50: 10.3 µM (inactive)
[24]
  GI50: 33.9 µM (inactive)
[25]
  GI50: 39.1 µM (inactive)
[26]
  GI50: 26.3 µM (inactive)
[27]
  GI50: 78.7 µM (inactive)
[28]
  GI50: 34.6 µM (inactive)
[29]
  GI50: 53.2 µM (inactive)
[30]
  GI50: 11.5 µM (inactive)
[31]
  GI50: 25.1 µM (inactive)
[32]
  GI50: 16 µM (inactive)
[33]
  GI50: 17 µM (inactive)
[34]
  GI50: 15 µM (inactive)
[35]
  GI50: 20.9 µM (inactive)
[36]
  GI50: 17.1 µM (inactive)
[37]
  GI50: 18.4 µM (inactive)
[38]
  GI50: 29.2 µM (inactive)
[39]
  GI50: 31 µM (inactive)
[40]
  GI50: 13.7 µM (inactive)
[41]
  GI50: 29.5 µM
[42]
  GI50: 31 µM (inactive)
[43]
  GI50: 22.8 µM (inactive)
[44]
  GI50: 32.7 µM (inactive)
[45]
  GI50: 18.7 µM (inactive)
[46]
  GI50: 48.4 µM (inactive)
[47]
  GI50: 17.5 µM (inactive)
[48]
  GI50: 14.1 µM (inactive)
[49]
  GI50: 13.5 µM (inactive)
[50]
  GI50: 32.1 µM (inactive)
[51]
  GI50: 6.43 µM (inactive)
[52]
  GI50: 31.6 µM (inactive)
[53]
  GI50: 24.9 µM (inactive)
[54]
  GI50: 8.28 µM (inactive)
[55]
  GI50: 24.1 µM (inactive)
[56]
  GI50: 27.2 µM (inactive)

## CC(C)(C)OC(=O)NCCCCC(NC(=O)OCc1ccccc1)C(N)=O (centres undefined)
[1]
  GI50: > 100 µM (inactive)
[2]
  GI50: > 100 µM (inactive)
[3]
  GI50: > 100 µM (inactive)
[4]
  GI50: > 100 µM (inactive)
[5]
  GI50: > 100 µM (inactive)
[6]
  GI50: 82.2 µM (inactive)
[7]
  GI50: > 100 µM (inactive)
[8]
  GI50: > 100 µM (inactive)
[9]
  GI50: > 100 µM (inactive)
[10]
  GI50: > 100 µM (inactive)
[11]
  GI50: > 100 µM (inactive)
[57]
  GI50: > 100 µM (inactive)
[12]
  GI50: > 100 µM (inactive)
[13]
  GI50: > 100 µM (inactive)
[14]
  GI50: > 100 µM (inactive)
[16]
  GI50: > 100 µM (inactive)
[17]
  GI50: > 100 µM (inactive)
[18]
  GI50: > 100 µM (inactive)
[19]
  GI50: > 100 µM (inactive)
[20]
  GI50: > 100 µM (inactive)
[21]
  GI50: > 100 µM (inactive)
[22]
  GI50: > 100 µM (inactive)
[23]
  GI50: > 100 µM (inactive)
[58]
  GI50: > 100 µM (inactive)
[25]
  GI50: > 100 µM (inactive)
[26]
  GI50: > 100 µM (inactive)
[27]
  GI50: > 100 µM (inactive)
[28]
  GI50: > 100 µM (inactive)
[29]
  GI50: > 100 µM (inactive)
[30]
  GI50: > 100 µM (inactive)
[31]
  GI50: > 100 µM (inactive)
[32]
  GI50: 58.3 µM (inactive)
[33]
  GI50: > 100 µM (inactive)
[34]
  GI50: > 100 µM (inactive)
[35]
  GI50: > 100 µM (inactive)
[36]
  GI50: > 100 µM (inactive)
[37]
  GI50: > 100 µM (inactive)
[38]
  GI50: > 100 µM (inactive)
[39]
  GI50: > 100 µM (inactive)
[40]
  GI50: > 100 µM (inactive)
[41]
  GI50: > 100 µM
[42]
  GI50: > 100 µM (inactive)
[43]
  GI50: > 100 µM (inactive)
[44]
  GI50: > 100 µM (inactive)
[45]
  GI50: > 100 µM (inactive)
[46]
  GI50: > 100 µM (inactive)
[47]
  GI50: > 100 µM (inactive)
[48]
  GI50: > 100 µM (inactive)
[49]
  GI50: > 100 µM (inactive)
[50]
  GI50: > 100 µM (inactive)
[59]
  GI50: > 100 µM (inactive)
[51]
  GI50: > 100 µM (inactive)
[52]
  GI50: > 100 µM (inactive)
[53]
  GI50: > 100 µM (inactive)
[54]
  GI50: > 100 µM (inactive)
[55]
  GI50: > 100 µM (inactive)
[56]
  GI50: > 100 µM (inactive)

## COc1cccc(-c2nc(O)c3ccccc3n2)c1OC
[1]
  GI50: > 100 µM (inactive)
[4]
  GI50: > 100 µM (inactive)
[5]
  GI50: > 100 µM (inactive)
[6]
  GI50: > 100 µM (inactive)
[7]
  GI50: > 100 µM (inactive)
[8]
  GI50: > 100 µM (inactive)
[9]
  GI50: > 100 µM (inactive)
[10]
  GI50: > 100 µM (inactive)
[11]
  GI50: 2.99 µM (inactive)
[13]
  GI50: > 100 µM (inactive)
[14]
  GI50: > 100 µM (inactive)
[16]
  GI50: > 100 µM (inactive)
[17]
  GI50: > 100 µM (inactive)
[18]
  GI50: > 100 µM (inactive)
[19]
  GI50: > 100 µM (inactive)
[20]
  GI50: > 100 µM (inactive)
[21]
  GI50: 51.8 µM (inactive)
[22]
  GI50: > 100 µM (inactive)
[23]
  GI50: > 100 µM (inactive)
[58]
  GI50: > 100 µM (inactive)
[24]
  GI50: > 100 µM (inactive)
[25]
  GI50: > 100 µM (inactive)
[26]
  GI50: > 100 µM (inactive)
[28]
  GI50: > 100 µM (inactive)
[29]
  GI50: > 100 µM (inactive)
[31]
  GI50: > 100 µM (inactive)
[32]
  GI50: > 100 µM (inactive)
[33]
  GI50: > 100 µM (inactive)
[34]
  GI50: > 100 µM (inactive)
[35]
  GI50: 46.1 µM (inactive)
[36]
  GI50: > 100 µM (inactive)
[37]
  GI50: > 100 µM (inactive)
[38]
  GI50: > 100 µM (inactive)
[40]
  GI50: 74.3 µM (inactive)
[41]
  GI50: > 100 µM
[42]
  GI50: > 100 µM (inactive)
[43]
  GI50: > 100 µM (inactive)
[44]
  GI50: > 100 µM (inactive)
[45]
  GI50: > 100 µM (inactive)
[46]
  GI50: > 100 µM (inactive)
[47]
  GI50: > 100 µM (inactive)
[48]
  GI50: > 100 µM (inactive)
[49]
  GI50: > 100 µM (inactive)
[50]
  GI50: > 100 µM (inactive)
[59]
  GI50: > 100 µM (inactive)
[51]
  GI50: > 100 µM (inactive)
[52]
  GI50: > 100 µM (inactive)
[53]
  GI50: > 100 µM (inactive)
[54]
  GI50: > 100 µM (inactive)
[55]
  GI50: > 100 µM (inactive)
[56]
  GI50: > 100 µM (inactive)
